Test results from patent US20250222120A1, “SYNTHESIS OF NOVEL SMALL MOLECULE CARM1 DEGRADERS, COMPOUNDS FORMED THEREBY, AND PHARMACEUTICAL COMPOSITIONS CONTAINING THEM” (Wisconsin Alumni Research Foundation, priority 2024, published 2025).

Target: T1, CARM1 (Homo sapiens, UniProt Q86X55)
T1 sequence (Q86X55 1-608): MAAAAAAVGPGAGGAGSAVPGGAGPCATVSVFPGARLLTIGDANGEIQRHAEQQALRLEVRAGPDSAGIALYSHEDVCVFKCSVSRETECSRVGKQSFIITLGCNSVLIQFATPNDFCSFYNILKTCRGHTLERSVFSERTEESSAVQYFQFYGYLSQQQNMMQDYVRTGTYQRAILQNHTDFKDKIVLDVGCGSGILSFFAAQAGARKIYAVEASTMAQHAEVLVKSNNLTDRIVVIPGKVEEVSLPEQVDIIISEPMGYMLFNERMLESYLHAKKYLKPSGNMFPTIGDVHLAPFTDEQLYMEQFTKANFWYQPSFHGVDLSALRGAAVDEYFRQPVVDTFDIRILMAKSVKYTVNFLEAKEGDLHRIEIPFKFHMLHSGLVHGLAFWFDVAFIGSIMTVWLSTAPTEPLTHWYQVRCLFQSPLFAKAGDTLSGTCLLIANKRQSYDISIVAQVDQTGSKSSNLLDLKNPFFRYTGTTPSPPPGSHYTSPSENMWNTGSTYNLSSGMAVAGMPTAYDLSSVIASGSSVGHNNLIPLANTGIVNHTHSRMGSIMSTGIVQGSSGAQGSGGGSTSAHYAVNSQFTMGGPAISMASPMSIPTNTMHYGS
Test: CARM1 degradation by western blot in BT474 cells
Assay type: cell-based
Conditions: ER+/HER2+ BT474 cells, 0.5 μM, after 24 or 48 h
Text: FIGS. 7A-7F. […] Cell lysates were collected and CARM1, methyl-BAF155, total BAF155, methyl-PABP1, and total PABP1 levels were detected by Western blot. […] Cell lysates were collected and CARM1, methyl-BAF155, total BAF155 levels were detected by Western blot. […] Cell proliferation rate normalized to day 0 was plotted. […] Migrated cells were stained with 1% crystal violet and the percentage of migrated cells were plotted. Data mean±s.d. ***. P≤0.001.
Western Blot Assay. Cells were harvested and washed with Dulbecco's phosphate-buffered saline (PBS), then lysed with 1×RIPA lysis buffer (50 mM Tris pH 7.5, 150 mM NaCl, 1% NP-40, 0.5% sodium deoxycholate, and 0.1% sodium dodecyl sulfate) supplemented with 1 mM phenylmethylsulfonyl fluoride, 10 μg/mL aprotinin, 1 μM leupeptin, and 10 μg/mL pepstatin on ice for 20 min. The supernatant was collected after spinning down at 15000 RPM at 4 degrees Celsius for 10 min. The concentration of whole lysates was quantified using a Bradford assay. 50-75 μg of cell lysates was boiled in 4× Laemmli Loading Dye and boiled at 100 degrees Celsius for 10 min. 25 μg were run in 8% SDS-PAGE gels and transferred to nitrocellulose membranes. Blots were blocked in 5% skim milk in PBST [PBS and 0.1% Tween 20] for 45 min, then incubated with primary antibodies at 4 degrees Celsius overnight. […]

CNCCN1CCC(c2cc(CN(C)C(=O)c3cccc(Oc4ccc(OCC(=O)N5CCC(CN6CCC(CN7CCN(CC(=O)N[C@H](C(=O)N8C[C@H](O)C[C@H]8C(=O)N[C@@H](C)c8ccc(-c9scnc9C)cc8)C(C)(C)C)CC7)CC6)CC5)cc4)c3)ccn2)CC1 [Compound 3b, (2S,4R)-1-((S)-3,3-dimethyl-2-(2-(4-((1-((1-(2-(4-(3-(methyl((2-(1-(2-(methylamino)ethyl)piperidin-4-yl)pyridin-4-yl)methyl)carbamoyl)phenoxy)phenoxy)acetyl)piperidin-4-yl)methyl)piperidin-4-yl)methyl)piperazin-1-yl)acetamido)butanoyl)-4-hydroxy-N—((S)-1-(4-(4-methylthiazol-5-yl)phenyl)ethyl)pyrrolidine-2-carboxamide]
CARM1 degradation: effectively degraded
